The target of this experiment is recombinant IL4I1 (Homo sapiens (Human), UniProt Q96RQ9). The experiment is described as follows: IL4I1 Enzymatic Assay (Amplex Red/HRP coupled fluorescence detection of H2O2). The experiment is classed as biochemical. The settings on record: 240 min; recombinant IL4I1, four-hour pre-incubation with compound. The procedure, abridged:
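Ten-point, 1:3 compound titrations were fitted by four-parameter sigmoidal regression to give EC50. Resorufin fluorescence (544/590 nm) from Amplex Red/HRP-coupled H2O2 detection was read 120 min after adding 1 mM each aromatic amino acid to 1 nM IL4I1, following a 4 h compound pre-incubation in pH 7.0 Hepes buffer.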
Chain of recombinant IL4I1 (Q96RQ9 22-567): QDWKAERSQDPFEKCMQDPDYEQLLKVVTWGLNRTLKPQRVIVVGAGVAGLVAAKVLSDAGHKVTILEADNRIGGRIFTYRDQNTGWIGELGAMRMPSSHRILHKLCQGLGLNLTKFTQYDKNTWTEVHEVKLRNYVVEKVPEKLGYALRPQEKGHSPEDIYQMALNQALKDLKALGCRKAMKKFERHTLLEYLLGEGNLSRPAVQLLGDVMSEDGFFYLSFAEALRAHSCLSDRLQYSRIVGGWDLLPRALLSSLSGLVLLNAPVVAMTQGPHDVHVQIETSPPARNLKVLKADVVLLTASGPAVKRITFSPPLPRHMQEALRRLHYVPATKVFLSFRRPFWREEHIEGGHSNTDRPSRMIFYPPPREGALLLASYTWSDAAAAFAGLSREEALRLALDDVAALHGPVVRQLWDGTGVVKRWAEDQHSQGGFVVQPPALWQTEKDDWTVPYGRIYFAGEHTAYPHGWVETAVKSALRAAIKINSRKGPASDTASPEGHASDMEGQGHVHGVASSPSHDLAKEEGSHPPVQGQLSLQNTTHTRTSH
Turning to `O=C1C(=O)N(C2CCC2)CCN1Cc1ccc(-c2nccs2)nn1` [Example 365, 1-cyclobutyl-4-((6-(thiazol-2-yl)pyridazin-3-yl)methyl)piperazine-2,3-dione], the EC50 – broadly, the concentration at which the effect is half-maximal – amounted to 17 nM.

Consider `O=c1c(=O)n(C23CC(C2)C3)ccn1Cc1ccc(-c2nccs2)nn1` [Example 366, 1-(bicyclo[1.1.1]pentan-1-yl)-4-((6-(thiazol-2-yl)pyridazin-3-yl)methyl)-1,4-dihydropyrazine-2,3-dione], for which the EC50 is 9 nM. With `O=c1c(=O)n(C2CCC2)ccn1Cc1ccc(-c2nccs2)nn1` [Example 367, 1-cyclobutyl-4-((6-(thiazol-2-yl)pyridazin-3-yl)methyl)-1,4-dihydropyrazine-2,3-dione] the figure was 9 nM; with `O=C1C(=O)N(C2CCCC2)CCN1Cc1ccc(-c2ccccn2)nn1` [Example 368, 1-cyclopentyl-4-((6-(pyridin-2-yl)pyridazin-3-yl)methyl)piperazine-2,3-dione], 28 nM. As to `O=C1C(=O)N(C2CCC2)CCN1Cc1nnc(-c2ccccn2)s1` [Example 369, 1-cyclobutyl-4-((5-(pyridin-2-yl)-1,3,4-thiadiazol-2-yl)methyl)piperazine-2,3-dione], the EC50 was determined as 32 nM. Turning to `O=c1c(=O)n(C2CCC2)ccn1Cc1nnc(-c2ccccn2)s1` [Example 370, 1-cyclobutyl-4-((5-(pyridin-2-yl)-1,3,4-thiadiazol-2-yl)methyl)-1,4-dihydropyrazine-2,3-dione], the concentration giving a half-maximal response (EC50) was 20 nM.

As for `O=c1c(=O)n([C@H]2C[C@H]3C[C@H]3C2)ccn1Cc1ncc(-c2nccs2)cc1F` [Example 371, 1-((cis)-bicyclo[3.1.0]hexan-3-yl)-4-((3-fluoro-5-(thiazol-2-yl)pyridin-2-yl)methyl)-1,4-dihydropyrazine-2,3-dione], the EC50 turned out to be 42 nM.

`O=c1c(=O)n([C@H]2C[C@@H](c3ccccc3)C2)ccn1Cc1nnc(-c2nccs2)s1` [Example 372, 1-((cis)-3-phenylcyclobutyl)-4-((5-(thiazol-2-yl)-1,3,4-thiadiazol-2-yl)methyl)-1,4-dihydropyrazine-2,3-dione]: the concentration giving a half-maximal response (EC50) worked out at 23 nM. With `O=c1c(=O)n(C2CCC2)ccn1Cc1cc(-c2ccccn2)on1` [Example 373, 1-cyclobutyl-4-((5-(pyridin-2-yl)isoxazol-3-yl)methyl)-1,4-dihydropyrazine-2,3-dione] the figure was 8 nM; with `O=C1C(=O)N([C@H]2C[C@H]3C[C@H]3C2)CCN1Cc1ccc(-c2nccs2)nn1` [Example 374, 1-((cis)-bicyclo[3.1.0]hexan-3-yl)-4-((6-(thiazol-2-yl)pyridazin-3-yl)methyl)piperazine-2,3-dione], 8 nM; with `O=c1c(=O)n([C@H]2C[C@H]3C[C@H]3C2)ccn1Cc1cc(-c2ccccn2)on1` [Example 375, 1-((cis)-bicyclo[3.1.0]hexan-3-yl)-4-((5-(pyridin-2-yl)isoxazol-3-yl)methyl)-1,4-dihydropyrazine-2,3-dione], 6 nM. With `O=C1C(=O)N(C2CCC2)CCN1Cc1ncc(-c2ccccn2)s1` [Example 376, 1-cyclobutyl-4-((5-(pyridin-2-yl)thiazol-2-yl)methyl)piperazine-2,3-dione] the figure was 14 nM; with `CC1(n2ccn(Cc3ccc(-c4nccs4)nn3)c(=O)c2=O)CC1` [Example 377, 1-(1-methylcyclopropyl)-4-((6-(thiazol-2-yl)pyridazin-3-yl)methyl)-1,4-dihydropyrazine-2,3-dione], 71 nM; with `O=C1C(=O)N(C2CCCC2)CCN1Cc1ncc(-n2nccn2)cn1` [Example 378, 1-((5-(2H-1,2,3-triazol-2-yl)pyrimidin-2-yl)methyl)-4-cyclopentylpiperazine-2,3-dione], 138 nM. Turning to `O=C1C(=O)N(C2CCCC2)CCN1Cc1ccc(-n2nccn2)cc1F` [Example 379, 1-cyclopentyl-4-(2-fluoro-4-(2H-1,2,3-triazol-2-yl)benzyl)piperazine-2,3-dione], the 50% effective concentration (EC50) amounted to 24 nM. For `O=C1C(=O)N(C2CCCC2)CCN1Cc1ccc(-n2nccn2)cn1` [Example 380, 1-((5-(2H-1,2,3-triazol-2-yl)pyridin-2-yl)methyl)-4-cyclopentylpiperazine-2,3-dione] the value was 17 nM.

`CC1(n2ccn(Cc3ccc(-n4cccn4)cn3)c(=O)c2=O)CC1` [Example 381, 1-((5-(1H-pyrazol-1-yl)pyridin-2-yl)methyl)-4-(1-methylcyclopropyl)-1,4-dihydropyrazine-2,3-dione]: the half-maximal effective concentration (EC50) worked out at 40 nM. With `O=c1c(=O)n(C23CC(C2)C3)ccn1Cc1ccc(-n2cccn2)cn1` [Example 382, 1-((5-(1H-pyrazol-1-yl)pyridin-2-yl)methyl)-4-(bicyclo[1.1.1]pentan-1-yl)-1,4-dihydropyrazine-2,3-dione] the figure was 25 nM; with `CC1(n2ccn(Cc3ccc(-n4cccn4)nc3)c(=O)c2=O)CC1` [Example 383, 1-((6-(1H-pyrazol-1-yl)pyridin-3-yl)methyl)-4-(1-methylcyclopropyl)-1,4-dihydropyrazine-2,3-dione], 26 nM; with `O=c1c(=O)n(C23CC(C2)C3)ccn1Cc1ccc(-n2cccn2)nc1` [Example 384, 1-((6-(1H-pyrazol-1-yl)pyridin-3-yl)methyl)-4-(bicyclo[1.1.1]pentan-1-yl)-1,4-dihydropyrazine-2,3-dione], 9 nM.

With `CC1(n2ccn(Cc3ccc(-n4ccnn4)cn3)c(=O)c2=O)CC1` [Example 385, 1-((5-(1H-1,2,3-triazol-1-yl)pyridin-2-yl)methyl)-4-(1-methylcyclopropyl)-1,4-dihydropyrazine-2,3-dione], the EC50 was determined as 42 nM. For `N#CC1(n2ccn(Cc3ccc(-n4cccn4)cn3)c(=O)c2=O)CC1` [Example 386, 1-(4-((5-(1H-pyrazol-1-yl)pyridin-2-yl)methyl)-2,3-dioxo-3,4-dihydropyrazin-1(2H)-yl)cyclopropane-1-carbonitrile] the value was 225 nM; for `N#CC1(n2ccn(Cc3ccc(-n4ccnn4)cn3)c(=O)c2=O)CC1` [Example 387, 1-(4-((5-(1H-1,2,3-triazol-1-yl)pyridin-2-yl)methyl)-2,3-dioxo-3,4-dihydropyrazin-1(2H)-yl)cyclopropane-1-carbonitrile], 677 nM; for `O=c1c(=O)n(C23CC(C2)C3)ccn1Cc1ccc(-n2ccnn2)cn1` [Example 388, 1-((5-(1H-1,2,3-triazol-1-yl)pyridin-2-yl)methyl)-4-(bicyclo[1.1.1]pentan-1-yl)-1,4-dihydropyrazine-2,3-dione], 23 nM.

`N#CC1(n2ccn(Cc3ccc(-n4cccn4)nc3)c(=O)c2=O)CC1` [Example 389, 1-(4-((6-(1H-pyrazol-1-yl)pyridin-3-yl)methyl)-2,3-dioxo-3,4-dihydropyrazin-1(2H)-yl)cyclopropane-1-carbonitrile]: the EC50 is 369 nM. For `N#CC1(n2ccn(Cc3ccc(-n4ccnn4)nc3)c(=O)c2=O)CC1` [Example 390, 1-(4-((6-(1H-1,2,3-triazol-1-yl)pyridin-3-yl)methyl)-2,3-dioxo-3,4-dihydropyrazin-1(2H)-yl)cyclopropane-1-carbonitrile] the value was 343 nM. For the compound `N#CC1(n2ccn(Cc3ccc(-n4nccn4)nc3)c(=O)c2=O)CC1` [Example 391, 1-(4-((6-(2H-1,2,3-triazol-2-yl)pyridin-3-yl)methyl)-2,3-dioxo-3,4-dihydropyrazin-1(2H)-yl)cyclopropane-1-carbonitrile], the 50% effective concentration (EC50) came to 170 nM. With `O=C1C(=O)N(C2CCCC2)CCN1Cc1ccc(N2CCC(F)(F)C2)nc1` [Example 392, 1-cyclopentyl-4-((6-(3,3-difluoropyrrolidin-1-yl)pyridin-3-yl)methyl)piperazine-2,3-dione] the figure was 31 nM; with `O=C1C(=O)N(C2CCCC2)CCN1Cc1ccc(N2CCC(F)C2)nc1` (stereo not shown) [Example 393, 1-cyclopentyl-4-((6-(3-fluoropyrrolidin-1-yl)pyridin-3-yl)methyl)piperazine-2,3-dione], 33 nM; with `O=C1C(=O)N(C2CCC2)CCN1Cc1ccc(-c2cnco2)nn1` [Example 394, 1-cyclobutyl-4-((6-(oxazol-5-yl)pyridazin-3-yl)methyl)piperazine-2,3-dione], 31 nM. Take `O=C1C(=O)N(C2CCC2)CCN1Cc1ccc(-c2cncs2)nn1` [Example 395, 1-cyclobutyl-4-((6-(thiazol-5-yl)pyridazin-3-yl)methyl)piperazine-2,3-dione]: the EC50 turned out to be 8 nM. With `O=c1c(=O)n(C2CCC2)ccn1Cc1nnc(-c2ccccc2)s1` [Example 396, 1-cyclobutyl-4-((5-phenyl-1,3,4-thiadiazol-2-yl)methyl)-1,4-dihydropyrazine-2,3-dione] the figure was 5 nM; with `O=c1c(=O)n(C2CCC2)ccn1Cc1ccc(-n2nccn2)cn1` [Example 397, 1-((5-(2H-1,2,3-triazol-2-yl)pyridin-2-yl)methyl)-4-cyclobutyl-1,4-dihydropyrazine-2,3-dione], 11 nM. With `O=C1C(=O)N(C2CCC2)CCN1Cc1ccc(-n2nccn2)nn1` [Example 398, 1-((6-(2H-1,2,3-triazol-2-yl)pyridazin-3-yl)methyl)-4-cyclobutylpiperazine-2,3-dione] the figure was 22 nM; with `O=C1C(=O)N(C2CCC2)CCN1Cc1ccc(-n2nccn2)cc1` [Example 399, 1-(4-(2H-1,2,3-triazol-2-yl)benzyl)-4-cyclobutylpiperazine-2,3-dione], 19 nM.

With `O=C1C(=O)N(C2CCC2)CCN1Cc1ncc(-n2nccn2)cc1F` [Example 400, 1-cyclobutyl-4-((3-fluoro-5-(2H-1,2,3-triazol-2-yl)pyridin-2-yl)methyl)piperazine-2,3-dione], the concentration for a half-maximal effect (EC50) is 25 nM.

For `O=C1C(=O)N(C23CC(C2)C3)CCN1Cc1ccc(-n2nccn2)nn1` [Example 401, 1-((6-(2H-1,2,3-triazol-2-yl)pyridazin-3-yl)methyl)-4-(bicyclo[1.1.1]pentan-1-yl)piperazine-2,3-dione], the concentration giving a half-maximal response (EC50) was determined as 48 nM.

These data come from US20240246937A1 (MERCK SHARP & DOHME LLC, priority 2021, published 2024).
